Experimental data published in ChEMBL document CHEMBL5550201, “Discovery of a Highly Potent, Selective and Efficacious USP7 Degrader for the Treatment of Acute Lymphoblastic Leukemia” (J Med Chem, 2024).
pIC50: −log10 of the molar value. Activity calls are given as the source filed them. The rule behind the calls is not given here.

Assays:
[1] = target: T1, von Hippel-Lindau disease tumor suppressor/Ubiquitin carboxyl-terminal hydrolase 7 (Homo sapiens, UniProt Q93009+P40337); test: PROTACT activity at USP7/VHL in human RS4;11 cells assessed as protein degradation at 10 nM measured after 24 hrs by Western blot analysis relative to control; type: cell-based
T1 sequence (P40337 whole entry, looked up): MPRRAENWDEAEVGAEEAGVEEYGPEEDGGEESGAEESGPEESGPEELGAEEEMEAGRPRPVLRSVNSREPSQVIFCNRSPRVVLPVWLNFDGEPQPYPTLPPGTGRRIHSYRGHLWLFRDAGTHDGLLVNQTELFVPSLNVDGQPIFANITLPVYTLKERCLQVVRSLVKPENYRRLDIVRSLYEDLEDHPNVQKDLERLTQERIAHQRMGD
T1 sequence (Q93009 whole entry, looked up): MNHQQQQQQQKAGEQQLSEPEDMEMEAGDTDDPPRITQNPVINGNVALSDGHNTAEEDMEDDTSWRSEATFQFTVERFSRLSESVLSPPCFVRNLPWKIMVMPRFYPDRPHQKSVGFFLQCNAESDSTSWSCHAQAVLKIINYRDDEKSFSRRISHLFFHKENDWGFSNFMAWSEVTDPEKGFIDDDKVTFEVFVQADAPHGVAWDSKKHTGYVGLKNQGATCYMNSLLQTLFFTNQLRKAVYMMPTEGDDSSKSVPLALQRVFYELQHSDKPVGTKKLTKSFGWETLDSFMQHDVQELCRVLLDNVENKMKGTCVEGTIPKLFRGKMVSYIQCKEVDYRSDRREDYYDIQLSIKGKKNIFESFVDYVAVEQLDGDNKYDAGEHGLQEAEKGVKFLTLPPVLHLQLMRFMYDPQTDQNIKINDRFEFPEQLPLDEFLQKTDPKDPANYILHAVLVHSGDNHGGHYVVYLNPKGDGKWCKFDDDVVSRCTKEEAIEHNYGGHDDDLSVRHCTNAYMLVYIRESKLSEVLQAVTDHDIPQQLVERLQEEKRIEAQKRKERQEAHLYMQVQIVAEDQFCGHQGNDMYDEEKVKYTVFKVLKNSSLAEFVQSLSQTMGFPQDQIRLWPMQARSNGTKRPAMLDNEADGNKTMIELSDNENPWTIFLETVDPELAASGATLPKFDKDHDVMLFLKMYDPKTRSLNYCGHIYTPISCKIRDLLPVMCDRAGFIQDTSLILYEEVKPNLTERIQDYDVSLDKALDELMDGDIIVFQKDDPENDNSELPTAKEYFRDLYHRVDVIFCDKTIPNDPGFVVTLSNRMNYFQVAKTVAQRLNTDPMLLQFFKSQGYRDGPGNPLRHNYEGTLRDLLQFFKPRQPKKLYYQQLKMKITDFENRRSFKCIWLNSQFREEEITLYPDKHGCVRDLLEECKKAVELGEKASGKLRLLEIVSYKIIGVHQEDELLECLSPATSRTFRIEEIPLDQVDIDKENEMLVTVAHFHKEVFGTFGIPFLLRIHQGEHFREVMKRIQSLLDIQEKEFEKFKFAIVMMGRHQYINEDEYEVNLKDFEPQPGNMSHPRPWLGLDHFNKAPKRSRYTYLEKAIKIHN

[2] = target: T1, von Hippel-Lindau disease tumor suppressor/Ubiquitin carboxyl-terminal hydrolase 7; test: PROTACT activity at USP7/VHL in human RS4;11 cells assessed as protein degradation at 100 nM measured after 24 hrs by Western blot analysis relative to control; type: cell-based
REH = test: Antiproliferative activity against human REH cells with wild type p53 assessed as cell viability measured after 3 days by PMS-MTS assay; type: functional, cell-based; conditions: 72 h
RS4-11 [3] = test: Antiproliferative activity against human RS4-11 cells with wild type p53 assessed as cell viability measured after 3 days by PMS-MTS assay; type: functional, cell-based; conditions: RS4-11, 72 h
RS4-11 [4] = test: Antiproliferative activity against human RS4-11 cells with shp53 assessed as cell viability measured after 7 days by PMS-MTS assay; type: functional, cell-based; conditions: RS4-11, 168 h
[5] = target: T1, von Hippel-Lindau disease tumor suppressor/Ubiquitin carboxyl-terminal hydrolase 7; test: PROTACT activity at USP7/VHL in human REH cells assessed as protein degradation at 10 to 100 nM measured after 12 hrs by Western blot analysis; type: cell-based; conditions: dose 10-100 nM
[6] = target: T1, von Hippel-Lindau disease tumor suppressor/Ubiquitin carboxyl-terminal hydrolase 7; test: PROTACT activity at USP7/VHL in human RS4;11 cells assessed as protein degradation at 10 to 100 nM measured after 12 hrs by Western blot analysis; type: cell-based; conditions: dose 10-100 nM
[7] = target: T1, von Hippel-Lindau disease tumor suppressor/Ubiquitin carboxyl-terminal hydrolase 7; test: PROTACT activity at USP7/VHL in human OCI-Ly10 cells assessed as protein degradation at 10 to 100 nM measured after 12 hrs by Western blot analysis; type: cell-based; conditions: dose 10-100 nM
[8] = target: von Hippel-Lindau disease tumor suppressor/USP7; test: PROTACT activity at USP7 (unknown origin) /E3 ligase (unknown origin) assessed as protein degradation
BT-549 = test: Antiproliferative activity against human BT-549 cells assessed as cell viability measured after 6 days by Celltiter glo2.0 cell viability assay; type: functional, cell-based; conditions: BT-549, 144 h
MDA-MB-468 = test: Antiproliferative activity against human MDA-MB-468 cells assessed as cell viability measured after 6 days by Celltiter glo2.0 cell viability assay; type: functional, cell-based; conditions: MDA-MB-468, 144 h
[9] = target: Protein cereblon/Ubiquitin carboxyl-terminal hydrolase 7 (Homo sapiens, UniProt Q93009+Q96SW2); test: PROTACT activity at USP7/CRBN in human CAL-33 cells assessed as protein degradation measured after 72 hrs by immune blot analysis; type: cell-based
Sequence of Protein cereblon/Ubiquitin carboxyl-terminal hydrolase 7 (Q93009 whole entry): as the sequence (Q93009 whole entry, looked up) above
Sequence of Protein cereblon/Ubiquitin carboxyl-terminal hydrolase 7 (Q96SW2 whole entry): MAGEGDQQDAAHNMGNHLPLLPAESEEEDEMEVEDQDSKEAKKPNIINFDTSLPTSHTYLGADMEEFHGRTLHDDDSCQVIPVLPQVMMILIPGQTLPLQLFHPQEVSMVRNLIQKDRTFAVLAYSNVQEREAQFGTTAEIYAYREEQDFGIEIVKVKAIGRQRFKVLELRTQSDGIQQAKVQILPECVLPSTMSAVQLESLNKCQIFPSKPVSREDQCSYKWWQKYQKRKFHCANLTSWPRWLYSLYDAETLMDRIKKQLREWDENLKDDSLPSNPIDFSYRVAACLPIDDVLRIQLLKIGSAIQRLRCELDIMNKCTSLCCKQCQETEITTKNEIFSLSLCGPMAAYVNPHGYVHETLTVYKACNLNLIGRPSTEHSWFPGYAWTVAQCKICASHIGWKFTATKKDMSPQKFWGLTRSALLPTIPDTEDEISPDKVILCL

Row | SMILES | Activity [1] [%] | Activity [2] [%] | other results
1 | Cc1ncsc1-c1ccc([C@H](C)NC(=O)[C@@H]2C[C@@H](O)CN2C(=O)[C@@H](c2cc(N3CCC(CN4CC(CNCc5ccc(-c6c7ncn(CC8(O)CCN(C(=O)C[C@@H](C)c9ccccc9)CC8)c(=O)c7nn6C)cc5)C4)CC3)no2)C(C)C)cc1 | 35 | 55.1 | 
2 | Cc1ncsc1-c1ccc([C@H](C)NC(=O)[C@@H]2C[C@@H](O)CN2C(=O)[C@@H](NC(=O)CCCCCCCCCCNCc2ccc(-c3c4ncn(CC5(O)CCN(C(=O)C[C@@H](C)c6ccccc6)CC5)c(=O)c4nn3C)cc2)C(C)(C)C)cc1 | 30.1 | 66.7 | 
3 | C[C@H](CC(=O)N1CCC(O)(Cn2cnc3c(-c4ccc(CN)cc4)n(C)nc3c2=O)CC1)c1ccccc1 |  |  | pIC50 (REH): 7.69; pIC50 (RS4-11 [3]): 7.16; pIC50 (RS4-11 [4]): < 4.70
4 | Cc1ncsc1-c1ccc([C@H](C)NC(=O)[C@@H]2C[C@@H](O)CN2C(=O)[C@@H](NC(=O)CCCCCCCNCc2ccc(-c3c4ncn(CC5(O)CCN(C(=O)C[C@@H](C)c6ccccc6)CC5)c(=O)c4nn3C)cc2)C(C)(C)C)cc1 | 46.9 | 58.1 | 
5 | Cc1ncsc1-c1ccc([C@H](C)NC(=O)[C@@H]2C[C@@H](O)CN2C(=O)[C@@H](c2cc(N3CCC(N4CC(NCc5ccc(-c6c7ncn(CC8(O)CCN(C(=O)C[C@@H](C)c9ccccc9)CC8)c(=O)c7nn6C)cc5)C4)CC3)no2)C(C)C)cc1 | 16 | 16.9 | 
6 | Cc1ncsc1-c1ccc([C@H](C)NC(=O)[C@@H]2C[C@H](O)CN2C(=O)[C@@H](c2cc(N3CCN(Cc4ccc(-c5c6ncn(CC7(O)CCN(C(=O)C[C@@H](C)c8ccccc8)CC7)c(=O)c6nn5C)cc4)CC3)no2)C(C)C)cc1 |  |  | Activity [5]: inactive; pIC50 (REH): 5.13; Activity [6]: inactive; pIC50 (RS4-11 [3]): 6.06; pIC50 (RS4-11 [4]): < 4.70; Activity [7]: inactive
7 | Cc1ncsc1-c1ccc([C@H](C)NC(=O)[C@@H]2C[C@@H](O)CN2C(=O)[C@@H](NC(=O)CCCCCCCCNCc2ccc(-c3c4ncn(CC5(O)CCN(C(=O)C[C@@H](C)c6ccccc6)CC5)c(=O)c4nn3C)cc2)C(C)(C)C)cc1 | 26.1 | 39.1 | 
8 | C[C@H](CC(=O)N1CCC(O)(Cn2cnc3c(-c4ccc(CNCCCCCCCCCCCNc5cccc6c5C(=O)N(C5CCC(=O)NC5=O)C6=O)cc4)n(C)nc3c2=O)CC1)c1ccccc1 (some centres not stated) |  |  | DC50 [8]: ~33 nM
9 | Cc1ncsc1-c1ccc([C@H](C)NC(=O)[C@@H]2C[C@@H](O)CN2C(=O)[C@@H](c2cc(N3CCC(CN4CCC(CNCc5ccc(-c6c7ncn(CC8(O)CCN(C(=O)C[C@@H](C)c9ccccc9)CC8)c(=O)c7nn6C)cc5)CC4)CC3)no2)C(C)C)cc1 | 50.8 | 73.5 | 
10 | Cc1ncsc1-c1ccc([C@H](C)NC(=O)[C@@H]2C[C@@H](O)CN2C(=O)[C@@H](NC(=O)CCOCCOCCOCCOCCNCc2ccc(-c3c4ncn(CC5(O)CCN(C(=O)C[C@@H](C)c6ccccc6)CC5)c(=O)c4nn3C)cc2)C(C)(C)C)cc1 | 13 | 44.4 | 
11 | O=C1CCC(N2Cc3c(CCCCCN4CCN(CCC(=O)Nc5ccc6c(=O)n(CC7(O)CCN(C(=O)C(CCCNC(=O)c8ccc9c(Cl)c%10c(nc9c8)CCCC%10)Cc8ccccc8)CC7)cnc6c5)CC4)cccc3C2=O)C(=O)N1 (configuration not stated) |  |  | pIC50 (BT-549): 5.55; pIC50 (MDA-MB-468): 5.74; DC50 [9]: 4.3 nM
12 | Cc1ncsc1-c1ccc([C@H](C)NC(=O)[C@@H]2C[C@@H](O)CN2C(=O)[C@@H](c2cc(N3CCC(CN4CCC(NCc5ccc(-c6c7ncn(CC8(O)CCN(C(=O)C[C@@H](C)c9ccccc9)CC8)c(=O)c7nn6C)cc5)CC4)CC3)no2)C(C)C)cc1 | 22.2 | 37.7 | 
13 | Cc1ncsc1-c1ccc([C@H](C)NC(=O)[C@@H]2C[C@@H](O)CN2C(=O)[C@@H](c2cc(N3CCC(CN4CC(NCc5ccc(-c6c7ncn(CC8(O)CCN(C(=O)C[C@@H](C)c9ccccc9)CC8)c(=O)c7nn6C)cc5)C4)CC3)no2)C(C)C)cc1 | 0.4 | 60.2 | 

Second part, led by results:

Row | Activity [1] [%] | Activity [2] [%] | SMILES | other results
14 | 12.8 | 26.8 | Cc1ncsc1-c1ccc([C@H](C)NC(=O)[C@@H]2C[C@@H](O)CN2C(=O)[C@@H](NC(=O)CCOCCOCCNCc2ccc(-c3c4ncn(CC5(O)CCN(C(=O)C[C@@H](C)c6ccccc6)CC5)c(=O)c4nn3C)cc2)C(C)(C)C)cc1 | 
15 | 15.5 | 25.6 | Cc1ncsc1-c1ccc([C@H](C)NC(=O)[C@@H]2C[C@@H](O)CN2C(=O)[C@@H](c2cc(N3CCC(N4CC(CNCc5ccc(-c6c7ncn(CC8(O)CCN(C(=O)C[C@@H](C)c9ccccc9)CC8)c(=O)c7nn6C)cc5)C4)CC3)no2)C(C)C)cc1 | 
16 | 31.9 | 75.5 | Cc1ncsc1-c1ccc([C@H](C)NC(=O)[C@@H]2C[C@@H](O)CN2C(=O)[C@@H](NC(=O)CCCCCCCCCCCNCc2ccc(-c3c4ncn(CC5(O)CCN(C(=O)C[C@@H](C)c6ccccc6)CC5)c(=O)c4nn3C)cc2)C(C)(C)C)cc1 | 
17 | 29.2 | 55.1 | Cc1ncsc1-c1ccc([C@H](C)NC(=O)[C@@H]2C[C@@H](O)CN2C(=O)[C@@H](NC(=O)CCCCCCCCCNCc2ccc(-c3c4ncn(CC5(O)CCN(C(=O)C[C@@H](C)c6ccccc6)CC5)c(=O)c4nn3C)cc2)C(C)(C)C)cc1 | 
18 | 38 | 56.5 | Cc1ncsc1-c1ccc([C@H](C)NC(=O)[C@@H]2C[C@@H](O)CN2C(=O)[C@@H](NC(=O)CCCCCNCc2ccc(-c3c4ncn(CC5(O)CCN(C(=O)C[C@@H](C)c6ccccc6)CC5)c(=O)c4nn3C)cc2)C(C)(C)C)cc1 | 
19 | 69.5 | 91.3 | Cc1ncsc1-c1ccc([C@H](C)NC(=O)[C@@H]2C[C@@H](O)CN2C(=O)[C@@H](c2cc(N3CCC(CNCc4ccc(-c5c6ncn(CC7(O)CCN(C(=O)C[C@@H](C)c8ccccc8)CC7)c(=O)c6nn5C)cc4)CC3)no2)C(C)C)cc1 | 
20 | 25.6 | 37.3 | Cc1ncsc1-c1ccc([C@H](C)NC(=O)[C@@H]2C[C@@H](O)CN2C(=O)[C@@H](c2cc(N3CCC(N4CCC(NCc5ccc(-c6c7ncn(CC8(O)CCN(C(=O)C[C@@H](C)c9ccccc9)CC8)c(=O)c7nn6C)cc5)CC4)CC3)no2)C(C)C)cc1 | 
21 | 26.1 | 33.6 | Cc1ncsc1-c1ccc([C@H](C)NC(=O)[C@@H]2C[C@@H](O)CN2C(=O)[C@@H](NC(=O)CCOCCOCCOCCNCc2ccc(-c3c4ncn(CC5(O)CCN(C(=O)C[C@@H](C)c6ccccc6)CC5)c(=O)c4nn3C)cc2)C(C)(C)C)cc1 | 
